According to publication PMC11314561, “Design and Synthesis of Novel Aminoindazole-pyrrolo[2,3-b]pyridine Inhibitors of IKKα That Selectively Perturb Cellular Non-Canonical NF-κB Signalling” (Molecules, 2024):

What was measured:
Experiment in all cases: kinase panel
Type in all cases: biochemical
PKCη(h) = PKCη(h) (Homo sapiens, UniProt P24723)
Method in brief: (§1)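 Percentage inhibition was recorded for each compound against a broad kinase panel of 231 enzymes. Because of its close structural resemblance to another analogue, one compound was screened against 98 chosen kinases.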

ZAP-70(h) = molecular target: T1, ZAP-70(h) (Homo sapiens, UniProt P43403)
T1 sequence (P43403 1-619): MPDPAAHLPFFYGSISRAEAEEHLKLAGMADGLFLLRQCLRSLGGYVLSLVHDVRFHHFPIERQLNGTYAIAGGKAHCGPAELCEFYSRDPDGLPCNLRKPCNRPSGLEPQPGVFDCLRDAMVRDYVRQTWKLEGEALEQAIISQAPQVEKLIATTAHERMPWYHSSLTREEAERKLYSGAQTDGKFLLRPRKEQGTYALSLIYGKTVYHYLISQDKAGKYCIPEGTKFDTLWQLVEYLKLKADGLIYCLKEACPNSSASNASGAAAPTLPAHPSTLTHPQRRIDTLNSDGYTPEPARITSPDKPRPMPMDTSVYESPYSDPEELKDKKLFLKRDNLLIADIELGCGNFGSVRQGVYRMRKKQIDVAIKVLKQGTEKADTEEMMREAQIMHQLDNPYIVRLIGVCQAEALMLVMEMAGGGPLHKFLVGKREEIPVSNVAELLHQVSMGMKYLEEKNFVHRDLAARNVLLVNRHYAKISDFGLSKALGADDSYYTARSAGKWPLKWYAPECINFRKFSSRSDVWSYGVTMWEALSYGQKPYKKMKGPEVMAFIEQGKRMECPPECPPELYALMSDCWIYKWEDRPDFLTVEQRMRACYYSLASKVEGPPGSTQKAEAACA
Method in brief: as §1

JAK2(h) = JAK2(h) (Homo sapiens, UniProt O60674)
Sequence of JAK2(h) (O60674 whole entry): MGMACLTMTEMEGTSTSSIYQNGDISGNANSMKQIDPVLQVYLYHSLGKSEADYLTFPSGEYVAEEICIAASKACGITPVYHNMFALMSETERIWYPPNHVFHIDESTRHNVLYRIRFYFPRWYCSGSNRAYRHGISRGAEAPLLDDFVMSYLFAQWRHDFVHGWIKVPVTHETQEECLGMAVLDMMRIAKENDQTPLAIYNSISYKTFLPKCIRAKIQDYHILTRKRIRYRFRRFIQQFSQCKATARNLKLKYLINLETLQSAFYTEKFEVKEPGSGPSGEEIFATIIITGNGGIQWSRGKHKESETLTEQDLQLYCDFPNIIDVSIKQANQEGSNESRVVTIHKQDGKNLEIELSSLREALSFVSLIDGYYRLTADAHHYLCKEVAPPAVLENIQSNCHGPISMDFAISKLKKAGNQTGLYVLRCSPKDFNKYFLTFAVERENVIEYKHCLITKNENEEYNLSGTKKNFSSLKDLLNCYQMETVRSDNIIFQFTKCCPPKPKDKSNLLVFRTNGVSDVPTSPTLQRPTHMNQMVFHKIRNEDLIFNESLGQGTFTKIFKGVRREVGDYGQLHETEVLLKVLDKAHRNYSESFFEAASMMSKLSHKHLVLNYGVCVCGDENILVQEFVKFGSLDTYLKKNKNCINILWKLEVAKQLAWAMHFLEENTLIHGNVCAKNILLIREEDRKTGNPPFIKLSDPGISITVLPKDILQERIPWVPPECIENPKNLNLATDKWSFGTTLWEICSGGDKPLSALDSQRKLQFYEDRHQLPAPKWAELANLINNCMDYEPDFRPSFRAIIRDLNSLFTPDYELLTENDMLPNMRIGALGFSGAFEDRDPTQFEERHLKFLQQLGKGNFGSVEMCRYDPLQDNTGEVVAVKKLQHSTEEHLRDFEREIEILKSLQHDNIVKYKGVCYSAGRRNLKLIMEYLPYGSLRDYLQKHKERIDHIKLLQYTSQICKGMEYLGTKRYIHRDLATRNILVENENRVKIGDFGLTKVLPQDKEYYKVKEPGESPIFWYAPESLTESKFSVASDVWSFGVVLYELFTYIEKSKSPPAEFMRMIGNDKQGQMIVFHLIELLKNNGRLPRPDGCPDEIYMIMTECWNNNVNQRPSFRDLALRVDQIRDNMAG
Method in brief: as §1

CaMKIIβ(h) = CaMKIIβ(h) (Homo sapiens, UniProt Q13554)
Sequence of CaMKIIβ(h) (Q13554 whole entry): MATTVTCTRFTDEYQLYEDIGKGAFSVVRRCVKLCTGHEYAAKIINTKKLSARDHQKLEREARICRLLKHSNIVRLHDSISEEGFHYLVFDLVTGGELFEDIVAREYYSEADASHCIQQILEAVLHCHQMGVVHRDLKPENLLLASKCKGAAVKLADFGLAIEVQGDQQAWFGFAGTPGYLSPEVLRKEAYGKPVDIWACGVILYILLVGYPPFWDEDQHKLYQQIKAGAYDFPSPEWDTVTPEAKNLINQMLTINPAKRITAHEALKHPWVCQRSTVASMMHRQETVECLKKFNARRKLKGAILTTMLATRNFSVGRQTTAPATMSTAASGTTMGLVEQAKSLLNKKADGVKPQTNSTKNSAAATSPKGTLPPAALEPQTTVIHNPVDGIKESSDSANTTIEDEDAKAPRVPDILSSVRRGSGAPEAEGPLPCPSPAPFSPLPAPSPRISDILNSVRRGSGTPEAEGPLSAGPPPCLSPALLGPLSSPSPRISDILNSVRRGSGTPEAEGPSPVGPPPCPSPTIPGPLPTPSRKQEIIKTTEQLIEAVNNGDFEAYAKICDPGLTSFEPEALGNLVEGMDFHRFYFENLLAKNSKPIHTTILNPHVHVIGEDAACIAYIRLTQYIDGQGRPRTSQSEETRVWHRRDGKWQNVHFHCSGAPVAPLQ
Method in brief: as §1

EphA1(h) = molecular target: T2, EphA1(h) (Homo sapiens, UniProt P21709)
T2 sequence (P21709 26-976): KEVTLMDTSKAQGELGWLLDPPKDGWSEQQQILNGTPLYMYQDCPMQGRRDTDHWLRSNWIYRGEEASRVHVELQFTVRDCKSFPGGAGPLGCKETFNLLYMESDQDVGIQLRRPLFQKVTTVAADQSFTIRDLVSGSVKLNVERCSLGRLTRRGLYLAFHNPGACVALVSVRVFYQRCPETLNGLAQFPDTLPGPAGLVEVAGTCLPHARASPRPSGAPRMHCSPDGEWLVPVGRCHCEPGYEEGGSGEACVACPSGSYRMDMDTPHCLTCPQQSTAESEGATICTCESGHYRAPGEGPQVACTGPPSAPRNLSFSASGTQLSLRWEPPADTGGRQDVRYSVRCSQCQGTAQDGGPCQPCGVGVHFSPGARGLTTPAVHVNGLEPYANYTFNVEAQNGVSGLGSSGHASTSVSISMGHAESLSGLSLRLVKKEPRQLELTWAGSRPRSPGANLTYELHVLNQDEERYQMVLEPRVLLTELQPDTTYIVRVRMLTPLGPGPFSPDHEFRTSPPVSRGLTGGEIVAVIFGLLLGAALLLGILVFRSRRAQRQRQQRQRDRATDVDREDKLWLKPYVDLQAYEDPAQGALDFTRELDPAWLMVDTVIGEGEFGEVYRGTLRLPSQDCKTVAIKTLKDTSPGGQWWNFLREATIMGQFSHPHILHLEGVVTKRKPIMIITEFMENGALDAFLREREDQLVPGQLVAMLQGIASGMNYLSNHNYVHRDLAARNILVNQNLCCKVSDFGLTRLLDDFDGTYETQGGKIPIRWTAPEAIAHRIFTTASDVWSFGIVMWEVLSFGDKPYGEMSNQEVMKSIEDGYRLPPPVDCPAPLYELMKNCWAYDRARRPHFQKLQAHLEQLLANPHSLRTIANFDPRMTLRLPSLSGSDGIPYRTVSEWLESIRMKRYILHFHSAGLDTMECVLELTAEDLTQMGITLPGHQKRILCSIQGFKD
Method in brief: as §1

ZIPK(h) = ZIPK(h) (Homo sapiens, UniProt O43293)
Sequence of ZIPK(h) (O43293 whole entry): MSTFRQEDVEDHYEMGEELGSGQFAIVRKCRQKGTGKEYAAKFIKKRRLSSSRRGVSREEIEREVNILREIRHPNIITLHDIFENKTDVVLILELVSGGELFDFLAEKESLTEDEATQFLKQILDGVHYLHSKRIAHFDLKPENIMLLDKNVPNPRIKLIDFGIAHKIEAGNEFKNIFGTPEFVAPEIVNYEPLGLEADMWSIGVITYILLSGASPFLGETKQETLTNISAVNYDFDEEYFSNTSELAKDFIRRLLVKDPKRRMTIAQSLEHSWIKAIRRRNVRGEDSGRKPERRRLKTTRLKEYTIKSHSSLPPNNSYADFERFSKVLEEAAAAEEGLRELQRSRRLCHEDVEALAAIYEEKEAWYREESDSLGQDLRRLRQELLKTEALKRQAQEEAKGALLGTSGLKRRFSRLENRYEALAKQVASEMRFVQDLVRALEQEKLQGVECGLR
Method in brief: as §1

CDK5/p35(h) = CDK5/p35(h) (Homo sapiens, UniProt Q00535)
Sequence of CDK5/p35(h) (Q00535 whole entry): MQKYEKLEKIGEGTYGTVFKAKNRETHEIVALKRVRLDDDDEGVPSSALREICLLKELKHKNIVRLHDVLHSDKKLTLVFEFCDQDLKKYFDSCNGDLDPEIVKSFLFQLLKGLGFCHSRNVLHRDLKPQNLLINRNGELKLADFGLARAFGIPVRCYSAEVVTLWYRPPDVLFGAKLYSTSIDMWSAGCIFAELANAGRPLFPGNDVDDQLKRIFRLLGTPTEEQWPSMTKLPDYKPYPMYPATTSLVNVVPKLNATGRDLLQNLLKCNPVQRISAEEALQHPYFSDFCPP
Sequence of CDK5/p35(h) (Q15078 whole entry partner): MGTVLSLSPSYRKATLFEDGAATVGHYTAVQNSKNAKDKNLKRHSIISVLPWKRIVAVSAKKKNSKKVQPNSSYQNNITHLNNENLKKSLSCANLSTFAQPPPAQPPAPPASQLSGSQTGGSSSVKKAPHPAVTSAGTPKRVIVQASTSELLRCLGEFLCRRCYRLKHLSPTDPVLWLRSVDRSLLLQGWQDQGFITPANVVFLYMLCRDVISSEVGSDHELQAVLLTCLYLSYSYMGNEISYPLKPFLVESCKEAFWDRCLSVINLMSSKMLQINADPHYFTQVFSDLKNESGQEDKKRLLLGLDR
Method in brief: as §1

PKCα(h) = PKCα(h) (Homo sapiens, UniProt P17252)
Method in brief: as §1

MST2(h) = molecular target: T3, MST2(h) (Homo sapiens, UniProt Q13188)
T3 sequence (Q13188 1-491): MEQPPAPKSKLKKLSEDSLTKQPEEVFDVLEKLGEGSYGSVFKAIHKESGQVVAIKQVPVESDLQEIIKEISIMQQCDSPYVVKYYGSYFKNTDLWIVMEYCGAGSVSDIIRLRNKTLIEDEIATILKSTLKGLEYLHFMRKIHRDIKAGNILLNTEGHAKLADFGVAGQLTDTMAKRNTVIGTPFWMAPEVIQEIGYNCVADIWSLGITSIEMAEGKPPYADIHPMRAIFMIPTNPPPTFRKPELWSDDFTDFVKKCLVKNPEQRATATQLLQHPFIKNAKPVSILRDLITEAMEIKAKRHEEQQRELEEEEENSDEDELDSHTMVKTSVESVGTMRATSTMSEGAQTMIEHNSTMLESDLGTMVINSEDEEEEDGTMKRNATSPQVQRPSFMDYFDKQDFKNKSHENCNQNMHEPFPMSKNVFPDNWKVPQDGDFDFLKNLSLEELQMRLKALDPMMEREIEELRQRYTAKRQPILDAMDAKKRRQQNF
Method in brief: as §1

cSRC(h) = cSRC(h) (Homo sapiens, UniProt P12931)
Sequence of cSRC(h) (P12931 whole entry): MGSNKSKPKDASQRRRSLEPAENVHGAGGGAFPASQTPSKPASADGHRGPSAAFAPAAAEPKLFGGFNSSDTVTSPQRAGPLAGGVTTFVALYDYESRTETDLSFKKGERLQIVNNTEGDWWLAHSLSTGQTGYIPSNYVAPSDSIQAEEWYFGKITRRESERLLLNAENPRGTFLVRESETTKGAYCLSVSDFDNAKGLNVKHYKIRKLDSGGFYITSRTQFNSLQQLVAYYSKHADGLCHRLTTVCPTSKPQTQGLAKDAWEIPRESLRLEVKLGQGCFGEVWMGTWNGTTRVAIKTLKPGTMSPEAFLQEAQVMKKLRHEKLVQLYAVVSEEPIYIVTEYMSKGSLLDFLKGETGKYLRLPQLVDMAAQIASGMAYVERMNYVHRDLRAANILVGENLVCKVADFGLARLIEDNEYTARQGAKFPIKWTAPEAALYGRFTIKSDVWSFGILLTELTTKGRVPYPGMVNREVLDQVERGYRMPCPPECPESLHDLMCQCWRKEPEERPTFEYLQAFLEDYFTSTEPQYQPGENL
Method in brief: as §1

CDK2/cyclinE(h) = CDK2/cyclinE(h) (Homo sapiens, UniProt P24941)
Method in brief: as §1

Lck(h) = Lck(h) (Homo sapiens, UniProt P06239)
Method in brief: as §1

Sequence of PKCη(h) (P24723 whole entry): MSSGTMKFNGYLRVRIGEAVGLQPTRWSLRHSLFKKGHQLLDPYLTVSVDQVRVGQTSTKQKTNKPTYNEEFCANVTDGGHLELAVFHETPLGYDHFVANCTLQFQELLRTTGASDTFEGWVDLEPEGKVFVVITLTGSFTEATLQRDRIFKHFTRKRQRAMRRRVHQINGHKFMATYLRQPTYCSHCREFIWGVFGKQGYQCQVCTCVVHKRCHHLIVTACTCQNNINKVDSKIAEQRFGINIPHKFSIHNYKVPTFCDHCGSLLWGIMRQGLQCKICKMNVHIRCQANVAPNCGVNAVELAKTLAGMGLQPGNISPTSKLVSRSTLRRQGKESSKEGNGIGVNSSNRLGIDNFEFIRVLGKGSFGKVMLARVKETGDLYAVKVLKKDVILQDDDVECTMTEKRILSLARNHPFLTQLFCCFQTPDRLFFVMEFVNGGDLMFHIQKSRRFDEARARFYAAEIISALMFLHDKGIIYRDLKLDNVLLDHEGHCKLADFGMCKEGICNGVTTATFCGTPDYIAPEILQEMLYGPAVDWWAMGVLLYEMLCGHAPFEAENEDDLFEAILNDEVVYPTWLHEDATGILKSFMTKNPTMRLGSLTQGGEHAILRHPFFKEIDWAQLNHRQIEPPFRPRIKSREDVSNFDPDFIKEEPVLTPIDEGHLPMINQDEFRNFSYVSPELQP

| inhibition at 1 µM (PKCη(h)) [%] | inhibition at 1 µM (ZAP-70(h)) [%] | inhibition at 1 µM (JAK2(h)) [%] | inhibition at 1 µM (CaMKIIβ(h)) [%] | inhibition at 1 µM (EphA1(h)) [%] | inhibition at 1 µM (ZIPK(h)) [%] | inhibition at 1 µM (CDK5/p35(h)) [%] | inhibition at 1 µM (PKCα(h)) [%] | inhibition at 1 µM (MST2(h)) [%] | inhibition at 1 µM (cSRC(h)) [%] | inhibition at 1 µM (CDK2/cyclinE(h)) [%] | inhibition at 1 µM (Lck(h)) [%] | Structure (SMILES) |
| --- | --- | --- | --- | --- | --- | --- | --- | --- | --- | --- | --- | --- |
| 2 | -8 | 88 | 74 | 87 | -7 | 101 | 5 | 5 | 42 | 86 | 48 | Nc1n[nH]c2ccc(-c3ccnc4[nH]c(-c5ccccc5)cc34)cc12 [Compound 4] |
| 2 | -27 | 73 | 47 | 24 | 0 | 96 | 23 | -1 | 26 | 37 | 34 | Nc1n[nH]c2ccc(-c3ccnc4[nH]c(-c5cccc(OCc6ccccc6)c5)cc34)cc12 [Compound 5r [SU1261]] |
| -1 | -22 | 35 | 12 | -7 | 1 | 90 | -1 | 4 | -28 | 29 | -19 | Nc1n[nH]c2ccc(-c3ccnc4[nH]c(-c5ccnc(OCc6ccccc6)c5)cc34)cc12 [Compound 6g [SU1349]] |
